Test results from patent US10023570B2 (Array BioPharma, Inc., priority 2015, dated 2018).
pIC50: −log10 of the molar value. Where a name gives a salt, the structure may show the parent alone.

Biological target: human KDR protein in HEK-293 cells (Homo sapiens (Human), UniProt P35968)
Assay: KDR Cell Assay (phospho-KDR in HEK-293 cells expressing inducible KDR)
Format: cell-based
Details: pKDR Cell HEK 10% FBS IC50, HEK-293 cells expressing inducible KDR, VEGF stimulated
Summary of the method: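 HEK-293 cells with inducible human KDR were treated with compound for 1 h in DMEM (0.25% DMSO final), then lysed. Phospho-KDR was quantified by Meso Scale immunoassay, expressed as percent of control, and IC50 taken where a 4-parameter logistic fit crossed 50 POC.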

human KDR protein in HEK-293 cells, sequence (P35968 20-1356): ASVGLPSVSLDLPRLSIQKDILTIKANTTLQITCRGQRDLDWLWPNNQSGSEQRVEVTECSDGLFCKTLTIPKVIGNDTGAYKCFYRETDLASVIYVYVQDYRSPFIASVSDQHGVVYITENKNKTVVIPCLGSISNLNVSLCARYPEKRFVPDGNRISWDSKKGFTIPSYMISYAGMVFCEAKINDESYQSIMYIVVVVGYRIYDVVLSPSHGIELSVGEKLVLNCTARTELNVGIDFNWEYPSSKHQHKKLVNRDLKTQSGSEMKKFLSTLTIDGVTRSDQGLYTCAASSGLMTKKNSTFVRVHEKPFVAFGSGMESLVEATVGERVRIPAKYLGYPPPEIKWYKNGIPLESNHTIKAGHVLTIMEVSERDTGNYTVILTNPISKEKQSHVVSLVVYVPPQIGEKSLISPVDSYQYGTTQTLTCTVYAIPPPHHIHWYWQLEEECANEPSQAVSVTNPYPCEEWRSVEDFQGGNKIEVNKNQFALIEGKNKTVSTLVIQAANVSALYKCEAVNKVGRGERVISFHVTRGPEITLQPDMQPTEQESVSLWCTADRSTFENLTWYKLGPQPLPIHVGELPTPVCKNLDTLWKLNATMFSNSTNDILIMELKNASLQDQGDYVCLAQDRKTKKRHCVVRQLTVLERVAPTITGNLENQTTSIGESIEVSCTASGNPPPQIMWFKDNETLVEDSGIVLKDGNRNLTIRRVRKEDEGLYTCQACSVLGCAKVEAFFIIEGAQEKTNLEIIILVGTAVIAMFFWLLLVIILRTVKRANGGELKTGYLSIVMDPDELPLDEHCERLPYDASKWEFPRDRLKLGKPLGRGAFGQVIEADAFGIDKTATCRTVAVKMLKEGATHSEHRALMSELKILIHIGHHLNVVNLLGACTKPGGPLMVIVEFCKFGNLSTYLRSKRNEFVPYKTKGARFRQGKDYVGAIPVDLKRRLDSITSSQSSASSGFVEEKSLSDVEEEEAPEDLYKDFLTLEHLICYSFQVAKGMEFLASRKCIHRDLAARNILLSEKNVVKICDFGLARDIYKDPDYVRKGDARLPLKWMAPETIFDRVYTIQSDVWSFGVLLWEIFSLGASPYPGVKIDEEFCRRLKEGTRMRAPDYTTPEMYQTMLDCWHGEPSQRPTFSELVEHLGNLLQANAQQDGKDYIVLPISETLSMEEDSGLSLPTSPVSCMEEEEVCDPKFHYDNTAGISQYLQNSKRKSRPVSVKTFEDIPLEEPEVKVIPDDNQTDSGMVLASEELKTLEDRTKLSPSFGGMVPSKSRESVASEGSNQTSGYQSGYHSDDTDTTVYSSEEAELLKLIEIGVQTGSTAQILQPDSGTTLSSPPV

| SMILES | pIC50 (10% FBS) | pIC50 |
| --- | --- | --- |
| N#Cc1cnn2cc(-c3cnn(C(F)F)c3)cc(-c3ccc(N4CCN(C(=O)[C@H](O)c5ccccc5)CC4)nc3)c12 [Example 268, (R)-6-(1-(difluoromethyl)-1H-pyrazol-4-yl)-4-(6-(4-(2-hydroxy-2-phenylacetyl)piperazin-1-yl)pyridin-3-yl)pyrazolo[1,5-a]pyridine-3-carbonitrile] | 6.30 |  |
| C[C@@H](C(=O)N1CCN(c2ccc(-c3cc(-c4cnn(C)c4)cn4ncc(C#N)c34)cn2)CC1)c1ccccc1 [Example 14, (R)-6-(1-methyl-1H-pyrazol-4-yl)-4-(6-(4-(2-phenylpropanoyl)piperazin-1-yl)pyridin-3-yl)pyrazolo[1,5-a]pyridine-3-carbonitrile] | 5.75 |  |
| Cn1cc(-c2cc(-c3ccc(N4CCN(C(=O)C5CCOCC5)CC4)nc3)c3c(C#N)cnn3c2)cn1 [Example 74, 6-(1-methyl-1H-pyrazol-4-yl)-4-(6-(4-(tetrahydro-2H-pyran-4-carbonyl)piperazin-1-yl)pyridin-3-yl)pyrazolo[1,5-a]pyridine-3-carbonitrile] | 5.87 |  |
| C[C@@H](c1ccccc1)N1CCN(c2ccc(-c3cc(-c4cnn(C)c4)cn4ncc(C#N)c34)cn2)CC1 [Example 422, (S)-6-(1-methyl-1H-pyrazol-4-yl)-4-(6-(4-(1-phenylethyl)piperazin-1-yl)pyridine-3-yl)pyrazolo[1,5-a]pyridine-3-carbonitrile dihydrochloride] |  | 6.03 |
| Cn1cc(-c2cc(-c3ccc(N4CCN(Cc5cnccn5)CC4)nc3)c3c(C#N)cnn3c2)cn1 [Example 453] |  | 5.77 |
| Cn1cc(-c2cc(-c3ccc(N4CCN(C(=O)C5(c6ccccc6)CC5)CC4)nc3)c3c(C#N)cnn3c2)cn1 [Example 25, 6-(1-methyl-1H-pyrazol-4-yl)-4-(6-(4-(1-phenylcyclopropane-1-carbonyl)piperazin-1-yl)pyridin-3-yl)pyrazolo[1,5-a]pyridine-3-carbonitrile] | 6.57 |  |
| Cn1cc(-c2cc(-c3ccc(N4C5CCC4CN(Cc4ccccc4)C5)nc3)c3c(C#N)cnn3c2)cn1 [Example 491, 4-(6-(3-benzyl-3,8-diazabicyclo[3.2.1]octan-8-yl)pyridin-3-yl)-6-(1-methyl-1H-pyrazol-4-yl)pyrazolo[1,5-a]pyridine-3-carbonitrile] |  | 6.92 |
| C[C@H](CO)Cn1cc(-c2cc(-c3ccc(N4CCN(C(=O)CC(C)(C)C)CC4)cc3)c3c(C#N)cnn3c2)cn1 [Example 307, (S)-4-(4-(4-(3,3-dimethylbutanoyl)piperazin-1-yl)phenyl)-6-(1-(3-hydroxy-2-methylpropyl)-1H-pyrazol-4-yl)pyrazolo[1,5-a]pyridine-3-carbonitrile] | 6.06 |  |
| CCN1CCN(c2ccc(-c3cc(-c4cnn(C)c4)cn4ncc(C#N)c34)cn2)CC1 [Example 409, 4-(6-(4-ethylpiperazin-1-yl)pyridin-3-yl)-6-(1-methyl-1H-pyrazol-4-yl)pyrazolo[1,5-a]pyridine-3-carbonitrile] |  | 5.78 |
| Cn1cc(-c2cc(-c3ccc(N4CCN(C(=O)[C@@H]5CCCO5)CC4)nc3)c3c(C#N)cnn3c2)cn1 [Example 60, (S)-6-(1-methyl-1H-pyrazol-4-yl)-4-(6-(4-(tetrahydrofuran-2-carbonyl)piperazin-1-yl)pyridin-3-yl)pyrazolo[1,5-a]pyridine-3-carbonitrile] | 6.42 |  |
| Cn1cc(-c2cc(-c3ccc(N4CCN(C(=O)N5CCC(F)(F)C5)CC4)nc3)c3c(C#N)cnn3c2)cn1 [Example 101, 4-(6-(4-(3,3-difluoropyrrolidine-1-carbonyl)piperazin-1-yl)pyridin-3-yl)-6-(1-methyl-1H-pyrazol-4-yl)pyrazolo[1,5-a]pyridine-3-carbonitrile] | 6.06 |  |
| C[C@@H]([C@@H](O)c1ccccc1)N1CCN(c2ccc(-c3cc(-c4cnn(C)c4)cn4ncc(C#N)c34)cn2)CC1 [Example 149, 4-(6-(4-((1S,2S)-1-hydroxy-1-phenylpropan-2-yl)piperazin-1-yl)pyridin-3-yl)-6-(1-methyl-1H-pyrazol-4-yl)pyrazolo[1,5-a]pyridine-3-carbonitrile] | 6.25 |  |
| CN(C)C(=O)N1CCN(c2ccc(-c3cc(-c4cnn(C)c4)cn4ncc(C#N)c34)cn2)CC1 [Example 132, 4-(5-(3-cyano-6-(1-methyl-1H-pyrazol-4-yl)pyrazolo[1,5-a]pyridin-4-yl)pyridin-2-yl)-N,N-dimethylpiperazine-1-carboxamide] | 5.94 |  |
| CO[C@H]1C[C@@H](NC(=O)C2CCN(c3ccc(-c4cc(-c5cnn(C)c5)cn5ncc(C#N)c45)cn3)CC2)C1 [Example 241, 1-(5-(3-cyano-6-(1-methyl-1H-pyrazol-4-yl)pyrazolo[1,5-a]pyridin-4-yl)pyridin-2-yl)-N-((1s,3s)-3-methoxycyclobutyl) piperidine-4-carboxamide] | 5.74 |  |
| Cn1cc(-c2cc(-c3ccc(N4CCN(C(=O)OC(C)(C)C)C5(CC5)C4)nc3)c3c(C#N)cnn3c2)cn1 [Example 166, tert-butyl 7-(5-(3-cyano-6-(1-methyl-1H-pyrazol-4-yl)pyrazolo[1,5-a]pyridin-4-yl)pyridin-2-yl)-4,7-diazaspiro[2.5]octane-4-carboxylate] | 5.70 |  |
| Cc1nn(C)cc1C(=O)N1CCN(c2ccc(-c3cc(-c4cnn(C)c4)cn4ncc(C#N)c34)cn2)CC1 [Example 41, 4-(6-(4-(1,3-dimethyl-1H-pyrazole-4-carbonyl)piperazin-1-yl)pyridin-3-yl)-6-(1-methyl-1H-pyrazol-4-yl)pyrazolo[1,5-a]pyridine-3-carbonitrile 2,2,2-trifluoroacetate] | 6.06 |  |
| Cn1cc(-c2cc(-c3ccc(C4CN(Cc5ccccc5)C4)nc3)c3c(C#N)cnn3c2)cn1 [Example 580, 4-(6-(1-benzylazetidin-3-yl)pyridin-3-yl)-6-(1-methyl-1H-pyrazol-4-yl)pyrazolo[1,5-a]-pyridine-3-carbonitrile] |  | 5.91 |
| CN1CCCC2(CCN(c3ccc(-c4cc(-c5cnn(C)c5)cn5ncc(C#N)c45)cn3)CC2)C1 [Example 556, 6-(1-methyl-1H-pyrazol-4-yl)-4-(6-(2-methyl-2,9-diazaspiro[5.5]undecan-9-yl)pyridin-3-yl)pyrazolo[1,5-a]pyridine-3-carbonitrile] |  | 5.72 |
| Cn1cc(-c2cc(-c3ccc(N4CCCC5(CCNCC5)C4)nc3)c3c(C#N)cnn3c2)cn1 [Example 540, 4-(6-(2,9-diazaspiro[5.5]undecan-2-yl)pyridin-3-yl)-6-(1-methyl-1H-pyrazol-4-yl)pyrazolo[1,5-a]pyridine-3-carbonitrile dihydrochloride] |  | 5.91 |
| Cn1cc(-c2cc(-c3ccc(N4CCN(C(=O)C(c5ccccc5)N5CCCCC5)CC4)nc3)c3c(C#N)cnn3c2)cn1 (stereo not shown) [Example 368, 6-(1-methyl-1H-pyrazol-4-yl)-4-(6-(4-(2-phenyl-2-(piperidin-1-yl)acetyl)piperazin-1-yl)pyridin-3-yl)pyrazolo[1,5-a]pyridine-3-carbonitrile bis(2,2,2-trifluoroacetate)] | 5.73 |  |
| COCC1(C(=O)N2CCN(c3ccc(-c4cc(-c5cnn(C)c5)cn5ncc(C#N)c45)cn3)CC2)CC1 [Example 353, 4-(6-(4-(1-(methoxymethyl)cyclopropanecarbonyl)piperazin-1-yl)pyridin-3-yl)-6-(1-methyl-1H-pyrazol-4-yl)pyrazolo[1,5-a]pyridine-3-carbonitrile] | 5.77 |  |
| Cn1cc(-c2cc(-c3ccc(N4CCN(C(=O)N5CC6CC6C5)CC4)nc3)c3c(C#N)cnn3c2)cn1 (stereo not shown) [Example 380, 4-(6-(4-(3-azabicyclo[3.1.0]hexane-3-carbonyl)piperazin-1-yl)pyridin-3-yl)-6-(1-methyl-1H-pyrazol-4-yl)pyrazolo[1,5-a]pyridine-3-carbonitrile] |  | 6.26 |
| C[C@H](O)Cn1cc(-c2cc(-c3ccc(N4CCN(C(=O)CC(C)(C)C)CC4)cc3)c3c(C#N)cnn3c2)cn1 [Example 304, (S)-4-(4-(4-(3,3-dimethylbutanoyl)piperazin-1-yl)phenyl)-6-(1-(2-hydroxypropyl)-1H-pyrazol-4-yl)pyrazolo[1,5-a]pyridine-3-carbonitrile] | 5.79 |  |
| Cn1cc(-c2cc(-c3ccc(N4CCN(C(=O)NCc5ccccc5)CC4)nc3)c3c(C#N)cnn3c2)cn1 [Example 129, N-benzyl-4-(5-(3-cyano-6-(1-methyl-1H-pyrazol-4-yl)pyrazolo[1,5-a]pyridin-4-yl)pyridin-2-yl)piperazine-1-carboxamide] | 7.03 |  |
| Cn1cc(-c2cc(-c3ccc(C4CCN(Cc5ccccc5)C4)nc3)c3c(C#N)cnn3c2)cn1 (stereo not shown) [Example 582, 4-(6-(1-benzylpyrrolidin-3-yl)pyridine-3-yl)-6-(1-methyl-1H-pyrazol-4-yl)pyrazolo[1,5-a]pyridine-3-carbonitrile] |  | 6.25 |
| Cn1cc(-c2cc(-c3ccc(N4CCC(N5CCOC5=O)CC4)nc3)c3c(C#N)cnn3c2)cn1 [Example 191, 6-(1-methyl-1H-pyrazol-4-yl)-4-(6-(4-(2-oxooxazolidin-3-yl)piperidin-1-yl)pyridin-3-yl)pyrazolo[1,5-a]pyridine-3-carbonitrile] | 7.66 |  |
| Cn1cnc(C(=O)N2CCN(c3ccc(-c4cc(-c5cnn(C)c5)cn5ncc(C#N)c45)cn3)CC2)c1 [Example 36, 4-(6-(4-(1-methyl-1H-imidazole-4-carbonyl)piperazin-1-yl)pyridin-3-yl)-6-(1-methyl-1H-pyrazol-4-yl)pyrazolo[1,5-a]pyridine-3-carbonitrile bis(2,2,2-trifluoroacetate)] | 6.67 |  |
| Cn1cc(-c2cc(-c3ccc(N4CCN(C(=O)N5CCC(F)CC5)CC4)nc3)c3c(C#N)cnn3c2)cn1 [Example 114, 4-(6-(4-(4-fluoropiperidine-1-carbonyl)piperazin-1-yl)pyridin-3-yl)-6-(1-methyl-1H-pyrazol-4-yl)pyrazolo[1,5-a]pyridine-3-carbonitrile] | 5.65 |  |
